Measurements reported in patent US12458578B2, “Composition for inhibiting plaque formation” (SUNSTAR SUISSE SA, priority 2020, dated 2025).

Tested on: Fusobacterium (Fusobacterium nucleatum subsp. nucleatum ATCC23726 and ATCC25586)
Test: Study of sterilization effect of quaternary ammonium salt sterilizer liquids (in water) on Fusobacterium, viable count after 30 seconds
Assay type: cell-based
Settings: for sterilization effect on Fusobacterium (number of viable bacteria): component used singly as sterilizer liquid in water, 0.01-0.10%, 30 seconds contact
Protocol: The alkylpyridinium chlorides and benzyl alkyl dimethyl ammonium chlorides shown below were dissolved in water such that each component had each concentration (0.01%, 0.02%, 0.03%, 0.04%, 0.05%, 0.07%, or 0.10%), and the resulting products were used as sterilizer liquids. In the sterilizer liquids, the components were used singly or in combination. The concentration (%) of an alkylpyridinium chloride in the sterilizer liquids is expressed as w/v %; however, since the solvent is water, and the concentrations are relatively low, the value is almost the same as the value expressed as mass % (w/w %) and can be approximated. • Octylpyridinium chloride (OPC): R=(CH2)7CH3 in the following formula • Dodecylpyridnium chloride (DPC): R=(CH2)11CH3 in the following formula • Cetylpyridinium chloride (CPC): R=(CH2)15CH3 in the following formula
For test bacteria, the following two subspecies of Fusobacterium were used. • Bacteria 1: Fusobacterium nucleatum subsp. nucleatum ATCC23726 • Bacteria 2: Fusobacterium nucleatum subsp. nucleatum ATCC25586
The test bacteria were individually inoculated into 10 ml of GAM bouillon medium (Nissui Pharmaceutical Co., Ltd.) and incubated anaerobically at 37° C. for 2 days. The resulting culture media were used as test bacteria liquids.
The sterilizer liquids (200 μl) at different concentrations were each mixed with the test bacteria liquids (200 μl). Thirty seconds after the mixing, 100 μl of the mixture was collected, and 900 μl of drug inactivation PBS in which soy lecithin and Tween 80 were added to a final concentration of 0.07% and 0.5%, respectively, to phosphate-buffered saline (PBS) was added (the mixture was diluted 10-fold) to inactivate the sterilization properties of the sterilizers. Each mixture was serially diluted 10^1- to 10^7-fold with the drug inactivation PBS (serially diluted mixers).
100 μl each of the prepared serially diluted mixers was smeared on sheep blood agar media for CDC anaerobes (Becton, Dickinson and Company), cultured anaerobically at 37° C. for 3 days, and the number of viable bacteria was counted.
FIGS. 1, 2, and 3 show the results. In the graphs of these figures, the vertical axis represents log (the number of viable bacteria) CFU/ml, with the detection limit of this value being 2.
The concentrations of CPC, DPC, OPC, BKC12, BKC14, and BKC16 in these figures and the following figures represent the concentrations of these components prepared as sterilizer liquids.

| Compound | sterilization effect on Fusobacterium (number of viable bacteria) | further results |
| --- | --- | --- |
| CCCCCCCCCCCC[N+](C)(C)Cc1ccccc1.[Cl-] [BKC12, Benzyl dodecyl dimethyl ammonium chloride] | showed a sterilization effect on Fusobacterium even at a relatively low concentration | – |
| CCCCCCCCCCCCCC[N+](C)(C)Cc1ccccc1.[Cl-] [BKC14, Benzyl tetradecyl dimethyl ammonium chloride] | showed a sterilization effect on Fusobacterium even at a relatively low concentration | – |
| CCCCCCCC[n+]1ccccc1.[Cl-] [OPC, Octylpyridinium chloride] | did not show a sterilization effect on Fusobacterium | – |
| CCCCCCCCCCCCCCCC[n+]1ccccc1.[Cl-] [CPC, Cetylpyridinium chloride] | did not show a sterilization effect on Fusobacterium | enhancement of the sterilization effect of BKC12 on Fusobacterium (CPC combined with BKC12 in the sterilizer liquid): enhanced the sterilization effect of BKC14 or BKC12 on Fusobacterium; enhancement of the sterilization effect of BKC14 on Fusobacterium (CPC combined with BKC14 in the sterilizer liquid): enhanced the sterilization effect of BKC14 or BKC12 on Fusobacterium; enhancement of the sterilization effect of DPC on Fusobacterium (CPC combined with DPC in the sterilizer liquid): enhanced the sterilization effect of DPC on Fusobacterium; enhancement of the sterilization effect of a quaternary ammonium salt having a C10 to C14 alkyl group on Fusobacterium (cetylpyridinium chloride combined with the quaternary ammonium salt): exhibits an effect of enhancing the sterilization effect of a quaternary ammonium salt having a C10 to C14 alkyl group on Fusobacterium; sterilization effect on Fusobacterium (number of viable bacteria) (listed as Cetylpyridinium chloride): an efficient sterilization effect on Fusobacterium was not observed; sterilization effect on Fusobacterium (number of viable bacteria) (listed as cetylpyridinium chloride): does not produce an efficient sterilization effect on Fusobacterium |
| CCCCCCCCCCCC[n+]1ccccc1.[Cl-] [DPC, Dodecylpyridnium chloride] | showed a sterilization effect on Fusobacterium even at a relatively low concentration | – |
| CCCCCCCCCCCCCCCC[N+](C)(C)Cc1ccccc1.[Cl-] [BKC16, Benzyl hexadecyl dimethyl ammonium chloride] | did not show a sterilization effect on Fusobacterium | – |
